Measured values published in publication PMC8179358, “An explicitly designed paratope of amyloid-β prevents neuronal apoptosis in vitro and hippocampal damage in rat brain” (Chemical Science, 2020).
*1 amine or outer side, *2 acyl side, *3 side chain or, on linkers, in order; H or OH if unused. Where a SMILES comes first, the peptide text is derived from it. Bridges are numbered along the chain shown (N, C = ends). Roman numbers before positions name the chains, in order. [ ]: non-standard residue; d: D form. X1 = O=C(CCCCC(=O)[*:2])NCCCOCCOCCOCCCNC(=O)CCC(=O)[*:1]; NMeF = CN[C@@H](Cc1ccccc1)C(=O)O; NMeL = CN[C@@H](CC(C)C)C(=O)O; NMeV = CN[C@H](C(=O)O)C(C)C

How the values were obtained:
[1] = tested on: SH-SY5Y cells; assay: LDH release assay, Aβ40 induced membrane damage; format: cell-based, human; details: Aβ40 10 μM, 24 h
Experimental: Then, we explored the membrane damage induced by Aβ40 (ref. [45] and [46]) using the lactate dehydrogenase (LDH) assay.
The release of cytosolic enzyme lactate dehydrogenase (LDH) into the culture medium indicates cell death due to the disruption of membrane integrity. Cell deathwas assessed by measuring LDH release in the culture medium by photocolorimetric kit according to the manufacturer’s protocol (Abcam, Cambridge, MA, USA). An increase in the number of lysed cell increases LDH activity in the culture medium proportionately. […]
Next, 50 µl culture supernatant was collected from each well and added to an assay mixture that was prepared by adding an equal amount of LDH substrate, co-factors, and dye solutions and incubated in the dark for 40mins at 37°C. […] Absorbance was measured at 490 nm with a reference filter of 660nm. […]
Generation of intracellular reactive oxygen species was measured by a spectrofluorimetric method using peroxide sensitive fluorescent probe 2′,7′-Dichlorofluorescin diacetate (DCFH-DA).11 In brief, SH-SY5Y […]
or both for 24h. […] Cells were then washed twice with PBS, and fluorescent intensity was measured by using a fluorescence microplate reader (Bio Rad, CA, USA) with an excitation filter of 490 nm and an emission filter of 520 nm.

[2] = tested on: Sprague-Dawley rats; assay: Sub-chronic toxicity, hematological and biochemical parameters; format: in vivo; details: for Basophil / Total Bilirubin / Creatinine / Eosinophil / Monocyte / RBC / WBC / Serum Urea / SGPT / Lymphocyte / SGOT / Neutrophil / Glucose / ALP: iv, 42 days, n = 8; for Basophil: control 0.00±0.00; for Total Bilirubin: control 0.58±0.04; for Creatinine: control 0.73±0.02; for Eosinophil: control 3.12±0.61; for Monocyte: control 3.20±0.99; for RBC: control 4.77±1.54; for WBC: control 6.60±1.20; for Serum Urea: control 26±1.45; for SGPT: control 38.0±1.70; for Lymphocyte: control 38.2±3.25; for SGOT: control 52.0±2.21; for Neutrophil: control 56.6±2.31; for Glucose: control 103.0±1.34; for ALP: control 111.0±3.46
Experimental: The tabulated biochemical profile (novel biomarkers of the liver and kidney) corroborates the safety charms of SP1 for further in vivo studies.
24 male Sprague Dawley rats were randomly divided into three groups: control, SP1A, and SP1B. Each group contains 8 animals and administration of SP1was performed for 42 days through a tail vein by the following schedule: Control: Without any treatment.
Rats were sacrificed after 42 days of injection schedule and blood was collected for hematological and biochemical estimations. For the histopathological study, the liver and kidney were also isolated very carefully and checked for cytoarchitectural changes if any.
The body weights and volumes of SP1 to be administered were recorded for each animal. Prior to injection, the tail of the animal was warmed by using warm water circulating pad placed under the cage for 5-10 minutes to dilate the veins. A 25-gauge needle was inserted into the vein towards the direction of the head. The needle and syringe were kept parallel to the tail. […]
µg/kg and 500 µg/kg) was injected into the tail slowly. The needle was removed very carefully and gentle compression applied until bleeding was stopped. Animals were returned to their home cage.
The biochemical parameters including blood glucose, serum urea, creatinine, total bilirubin, serum glutamic oxaloacetic transaminase (SGOT), serum glutamic pyruvic transaminase (SGPT), and alkaline phosphatase (ALP) were analyzed for sub-chronic toxicity of SP1by using commercially available diagnostic test kits (Crest Biosystems kits, India). Blood parameters like red blood cells, white blood cells, hemoglobin, neutrophil, lymphocyte, eosinophil, monocyte, and basophil were estimated using standard kits by following the manufacturer’s manual.

[3] = SP1 500 µg/kg, *P<0.01 vs control

Molecule: Aβ40: commercially available Aβ40 peptide
- LDH release by Aβ40 alone [1]: released a significant amount of cytosolic LDH

Molecule: CC(C)C[C@H](NC(=O)CNC(=O)CCC(=O)NCCCOCCOCCOCCCNC(=O)CCCCC(=O)NCC(=O)N(C)[C@@H](CC(C)C)C(=O)N[C@H](C(=O)N(C)[C@@H](Cc1ccccc1)C(=O)N[C@@H](Cc1ccccc1)C(=O)N[C@@H](C)C(N)=O)C(C)C)C(=O)N(C)[C@H](C(=O)N[C@@H](Cc1ccccc1)C(=O)N(C)[C@@H](Cc1ccccc1)C(=O)N[C@@H](C)C(N)=O)C(C)C [SP1] (I: GL[NMeV]F[NMeF]A-NH2 / II: G[NMeL]V[NMeF]FA-NH2; linker I:N-II:N via X1)
- hematological and biochemical parameters, summary ([2]; 100 μg kg−1, 42 days): did not find any severe changes in the hematological and biochemical parameters
- hematological and biochemical parameters, summary ([2]; 500 μg kg−1, 42 days): Almost similar observations in rats treated with SP1 (500 μg kg^−1) were revealed, except for monocyte and SGOT levels
- Basophil ([2]; SP1 100 µg/kg): 0.00±0.00%
- Total Bilirubin ([2]; SP1 100 µg/kg): 0.54 ± 0.09 mg/dL
- Creatinine ([2]; SP1 100 µg/kg): 0.69 ± 0.05 mg/dL
- Eosinophil ([2]; SP1 100 µg/kg): 2.62±0.82%
- Monocyte ([2]; SP1 100 µg/kg): 3.8±1.08%
- RBC ([2]; SP1 100 µg/kg): 5.20±1.23 10^6/mm3
- WBC ([2]; SP1 100 µg/kg): 5.80±1.34 10^3/mm3
- Serum Urea ([2]; SP1 100 µg/kg): 32.0 ± 1.83 mg/dL
- SGPT ([2]; SP1 100 µg/kg): 44.0±1.84 IU/L
- Lymphocyte ([2]; SP1 100 µg/kg): 42.3±2.92%
- SGOT ([2]; SP1 100 µg/kg): 55.0±2.94 IU/L
- Neutrophil ([2]; SP1 100 µg/kg): 58.00±2.54%
- Glucose ([2]; SP1 100 µg/kg): 110.0 ± 1.36 mg/dL
- ALP ([2]; SP1 100 µg/kg): 120.0±3.68 IU/L
- Basophil ([2]; SP1 500 µg/kg): 0.00±0.00%
- Total Bilirubin ([2]; SP1 500 µg/kg): 0.72 ± 0.06 mg/dL
- Creatinine ([2]; SP1 500 µg/kg): 0.86 ± 0.03 mg/dL
- Eosinophil ([2]; SP1 500 µg/kg): 2.72±0.53%
- Monocyte [2, 3]: 5.20±1.24%
- RBC ([2]; SP1 500 µg/kg): 5.51±1.38 10^6/mm3
- WBC ([2]; SP1 500 µg/kg): 6.21±1.15 10^3/mm3
- Serum Urea ([2]; SP1 500 µg/kg): 29.0 ± 1.66 mg/dL
- SGPT ([2]; SP1 500 µg/kg): 40.32±1.63 IU/L
- Lymphocyte ([2]; SP1 500 µg/kg): 40.5±3.12%
- SGOT [2, 3]: 64.2±2.56 IU/L
- Neutrophil ([2]; SP1 500 µg/kg): 62.10±2.42%
- Glucose ([2]; SP1 500 µg/kg): 105.0 ± 1.28 mg/dL
- ALP ([2]; SP1 500 µg/kg): 116.0±2.15 IU/L
